Experimental data reported in patent US10906873B2, “Substituted cyclic amides as herbicides” (FMC Corporation, priority 2015, dated 2021).

tested on: foxtail, giant (giant foxtail, Setaria faberii); test: Test A postemergence, foxtail, giant; type: in vivo; conditions: 125 g ai/ha, 0 to 100 scale
In short: (§1)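 Pre: seeds planted in loam/sand, directed soil spray. Post: 2–10 cm plants, 1–2 leaf. Formulation: non-phytotoxic solvent + surfactant. Greenhouse ~10 d; visual injury vs untreated, 0 = no effect, 100 = complete control.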

| SMILES | Plant response rating, Foxtail, Giant |
| --- | --- |
| O=C1NCC(CCc2ccccc2)C1C(=O)Nc1cccc(F)c1F (stereo not drawn) [Compound 35, N-(2,3-difluorophenyl)-2-oxo-4-(2-phenylethyl)-3-pyrrolidinecarboxamide] | 0 |

same assay, conditions: 500 g ai/ha, 0 to 100 scale

| SMILES | Plant response rating, Foxtail, Giant |
| --- | --- |
| O=C1NCC(CCc2ccccc2)C1C(=O)Nc1cccc(F)c1F (stereo not drawn) [Compound 35, N-(2,3-difluorophenyl)-2-oxo-4-(2-phenylethyl)-3-pyrrolidinecarboxamide] | 30 |

tested on: ragweed (common ragweed, Ambrosia elatior); test: Test A postemergence, ragweed; type: in vivo; conditions: 125 g ai/ha, 0 to 100 scale
In short: as §1

| SMILES | Plant response rating, Ragweed |
| --- | --- |
| O=C1NCC(CCc2ccccc2)C1C(=O)Nc1cccc(F)c1F (stereo not drawn) [Compound 35, N-(2,3-difluorophenyl)-2-oxo-4-(2-phenylethyl)-3-pyrrolidinecarboxamide] | 0 |

same assay, conditions: 500 g ai/ha, 0 to 100 scale

| SMILES | Plant response rating, Ragweed |
| --- | --- |
| O=C1NCC(CCc2ccccc2)C1C(=O)Nc1cccc(F)c1F (stereo not drawn) [Compound 35, N-(2,3-difluorophenyl)-2-oxo-4-(2-phenylethyl)-3-pyrrolidinecarboxamide] | 0 |

tested on: foxtail, giant (giant foxtail, Setaria faberii); test: Test A preemergence, foxtail, giant; type: in vivo; conditions: 125 g ai/ha, 0 to 100 scale
In short: as §1

| SMILES | Plant response rating, Foxtail, Giant |
| --- | --- |
| O=C1NCC(CCc2ccccc2)C1C(=O)Nc1cccc(F)c1F (stereo not drawn) [Compound 35, N-(2,3-difluorophenyl)-2-oxo-4-(2-phenylethyl)-3-pyrrolidinecarboxamide] | 0 |

same assay, conditions: 500 g ai/ha, 0 to 100 scale

| SMILES | Plant response rating, Foxtail, Giant |
| --- | --- |
| O=C1NCC(CCc2ccccc2)C1C(=O)Nc1cccc(F)c1F (stereo not drawn) [Compound 35, N-(2,3-difluorophenyl)-2-oxo-4-(2-phenylethyl)-3-pyrrolidinecarboxamide] | 60 |

tested on: pigweed (Amaranthus retroflexus); test: Test A preemergence, pigweed; type: in vivo; conditions: 125 g ai/ha, 0 to 100 scale
In short: as §1

| SMILES | Plant response rating, Pigweed |
| --- | --- |
| O=C1NCC(CCc2ccccc2)C1C(=O)Nc1cccc(F)c1F (stereo not drawn) [Compound 35, N-(2,3-difluorophenyl)-2-oxo-4-(2-phenylethyl)-3-pyrrolidinecarboxamide] | 0 |

same assay, conditions: 500 g ai/ha, 0 to 100 scale

| SMILES | Plant response rating, Pigweed |
| --- | --- |
| O=C1NCC(CCc2ccccc2)C1C(=O)Nc1cccc(F)c1F (stereo not drawn) [Compound 35, N-(2,3-difluorophenyl)-2-oxo-4-(2-phenylethyl)-3-pyrrolidinecarboxamide] | 0 |

tested on: kochia (Kochia scoparia); test: Test A preemergence, kochia; type: in vivo; conditions: 125 g ai/ha, 0 to 100 scale
In short: as §1

| SMILES | Plant response rating, Kochia |
| --- | --- |
| O=C1NCC(CCc2ccccc2)C1C(=O)Nc1cccc(F)c1F (stereo not drawn) [Compound 35, N-(2,3-difluorophenyl)-2-oxo-4-(2-phenylethyl)-3-pyrrolidinecarboxamide] | 0 |

same assay, conditions: 500 g ai/ha, 0 to 100 scale

| SMILES | Plant response rating, Kochia |
| --- | --- |
| O=C1NCC(CCc2ccccc2)C1C(=O)Nc1cccc(F)c1F (stereo not drawn) [Compound 35, N-(2,3-difluorophenyl)-2-oxo-4-(2-phenylethyl)-3-pyrrolidinecarboxamide] | 50 |

tested on: wheat (Triticum aestivum); test: Test A postemergence, wheat; type: in vivo; conditions: 125 g ai/ha, 0 to 100 scale
In short: as §1

| SMILES | Plant response rating, Wheat |
| --- | --- |
| O=C1NCC(CCc2ccccc2)C1C(=O)Nc1cccc(F)c1F (stereo not drawn) [Compound 35, N-(2,3-difluorophenyl)-2-oxo-4-(2-phenylethyl)-3-pyrrolidinecarboxamide] | 0 |

same assay, conditions: 500 g ai/ha, 0 to 100 scale

| SMILES | Plant response rating, Wheat |
| --- | --- |
| O=C1NCC(CCc2ccccc2)C1C(=O)Nc1cccc(F)c1F (stereo not drawn) [Compound 35, N-(2,3-difluorophenyl)-2-oxo-4-(2-phenylethyl)-3-pyrrolidinecarboxamide] | 0 |

tested on: pigweed (Amaranthus retroflexus); test: Test A postemergence, pigweed; type: in vivo; conditions: 125 g ai/ha, 0 to 100 scale
In short: as §1

| SMILES | Plant response rating, Pigweed |
| --- | --- |
| O=C1NCC(CCc2ccccc2)C1C(=O)Nc1cccc(F)c1F (stereo not drawn) [Compound 35, N-(2,3-difluorophenyl)-2-oxo-4-(2-phenylethyl)-3-pyrrolidinecarboxamide] | 0 |

same assay, conditions: 500 g ai/ha, 0 to 100 scale

| SMILES | Plant response rating, Pigweed |
| --- | --- |
| O=C1NCC(CCc2ccccc2)C1C(=O)Nc1cccc(F)c1F (stereo not drawn) [Compound 35, N-(2,3-difluorophenyl)-2-oxo-4-(2-phenylethyl)-3-pyrrolidinecarboxamide] | 0 |

tested on: barnyardgrass (Echinochloa crus-galli); test: Test A postemergence, barnyardgrass; type: in vivo; conditions: 125 g ai/ha, 0 to 100 scale
In short: as §1

| SMILES | Plant response rating, Barnyardgrass |
| --- | --- |
| O=C1NCC(CCc2ccccc2)C1C(=O)Nc1cccc(F)c1F (stereo not drawn) [Compound 35, N-(2,3-difluorophenyl)-2-oxo-4-(2-phenylethyl)-3-pyrrolidinecarboxamide] | 0 |

same assay, conditions: 500 g ai/ha, 0 to 100 scale

| SMILES | Plant response rating, Barnyardgrass |
| --- | --- |
| O=C1NCC(CCc2ccccc2)C1C(=O)Nc1cccc(F)c1F (stereo not drawn) [Compound 35, N-(2,3-difluorophenyl)-2-oxo-4-(2-phenylethyl)-3-pyrrolidinecarboxamide] | 30 |

tested on: ragweed (common ragweed, Ambrosia elatior); test: Test A preemergence, ragweed; type: in vivo; conditions: 125 g ai/ha, 0 to 100 scale
In short: as §1

| SMILES | Plant response rating, Ragweed |
| --- | --- |
| O=C1NCC(CCc2ccccc2)C1C(=O)Nc1cccc(F)c1F (stereo not drawn) [Compound 35, N-(2,3-difluorophenyl)-2-oxo-4-(2-phenylethyl)-3-pyrrolidinecarboxamide] | 0 |

same assay, conditions: 500 g ai/ha, 0 to 100 scale

| SMILES | Plant response rating, Ragweed |
| --- | --- |
| O=C1NCC(CCc2ccccc2)C1C(=O)Nc1cccc(F)c1F (stereo not drawn) [Compound 35, N-(2,3-difluorophenyl)-2-oxo-4-(2-phenylethyl)-3-pyrrolidinecarboxamide] | 0 |

tested on: ryegrass, It. (Italian ryegrass, Lolium multiflorum); test: Test A postemergence, ryegrass, It.; type: in vivo; conditions: 125 g ai/ha, 0 to 100 scale
In short: as §1

| SMILES | Plant response rating, Ryegrass, It. |
| --- | --- |
| O=C1NCC(CCc2ccccc2)C1C(=O)Nc1cccc(F)c1F (stereo not drawn) [Compound 35, N-(2,3-difluorophenyl)-2-oxo-4-(2-phenylethyl)-3-pyrrolidinecarboxamide] | 0 |

same assay, conditions: 500 g ai/ha, 0 to 100 scale

| SMILES | Plant response rating, Ryegrass, It. |
| --- | --- |
| O=C1NCC(CCc2ccccc2)C1C(=O)Nc1cccc(F)c1F (stereo not drawn) [Compound 35, N-(2,3-difluorophenyl)-2-oxo-4-(2-phenylethyl)-3-pyrrolidinecarboxamide] | 0 |

tested on: ducksalad (Heteranthera limosa); test: Test B flooded paddy test, ducksalad; type: in vivo; conditions: Flood, 250 g ai/ha; scale of 0 to 100 where 0 is no effect and 100 is complete control; 13 to 15 d
In short: (§2)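 Ratings use a 0-100 visual scale, where 100 is complete control, and compare treated plants with controls after 13 to 15 d of greenhouse growth. Compound went straight into paddy water kept 3 cm over the soil surface, applied to seedlings at the 2-leaf stage.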

| SMILES | Plant response rating, Ducksalad |
| --- | --- |
| O=C1NCC(CCc2ccccc2)C1C(=O)Nc1cccc(F)c1F (stereo not drawn) [Compound 35, N-(2,3-difluorophenyl)-2-oxo-4-(2-phenylethyl)-3-pyrrolidinecarboxamide] | 70 |

tested on: kochia (Kochia scoparia); test: Test A postemergence, kochia; type: in vivo; conditions: 125 g ai/ha, 0 to 100 scale
In short: as §1

| SMILES | Plant response rating, Kochia |
| --- | --- |
| O=C1NCC(CCc2ccccc2)C1C(=O)Nc1cccc(F)c1F (stereo not drawn) [Compound 35, N-(2,3-difluorophenyl)-2-oxo-4-(2-phenylethyl)-3-pyrrolidinecarboxamide] | 0 |

same assay, conditions: 500 g ai/ha, 0 to 100 scale

| SMILES | Plant response rating, Kochia |
| --- | --- |
| O=C1NCC(CCc2ccccc2)C1C(=O)Nc1cccc(F)c1F (stereo not drawn) [Compound 35, N-(2,3-difluorophenyl)-2-oxo-4-(2-phenylethyl)-3-pyrrolidinecarboxamide] | 0 |

tested on: galium (catchweed bedstraw, Galium aparine); test: Test A postemergence, galium; type: in vivo; conditions: 125 g ai/ha, 0 to 100 scale
In short: as §1

| SMILES | Plant response rating, Galium |
| --- | --- |
| O=C1NCC(CCc2ccccc2)C1C(=O)Nc1cccc(F)c1F (stereo not drawn) [Compound 35, N-(2,3-difluorophenyl)-2-oxo-4-(2-phenylethyl)-3-pyrrolidinecarboxamide] | 0 |

same assay, conditions: 500 g ai/ha, 0 to 100 scale

| SMILES | Plant response rating, Galium |
| --- | --- |
| O=C1NCC(CCc2ccccc2)C1C(=O)Nc1cccc(F)c1F (stereo not drawn) [Compound 35, N-(2,3-difluorophenyl)-2-oxo-4-(2-phenylethyl)-3-pyrrolidinecarboxamide] | 0 |

tested on: sedge, umbrella (small-flower umbrella sedge, Cyperus difformis); test: Test B flooded paddy test, sedge, umbrella; type: in vivo; conditions: Flood, 250 g ai/ha; scale of 0 to 100 where 0 is no effect and 100 is complete control; 13 to 15 d
In short: as §2

| SMILES | Plant response rating, Sedge, Umbrella |
| --- | --- |
| O=C1NCC(CCc2ccccc2)C1C(=O)Nc1cccc(F)c1F (stereo not drawn) [Compound 35, N-(2,3-difluorophenyl)-2-oxo-4-(2-phenylethyl)-3-pyrrolidinecarboxamide] | 0 |

tested on: barnyardgrass (Echinochloa crus-galli); test: Test B flooded paddy test, barnyardgrass; type: in vivo; conditions: Flood, 250 g ai/ha; scale of 0 to 100 where 0 is no effect and 100 is complete control; 13 to 15 d
In short: as §2

| SMILES | Plant response rating, Barnyardgrass |
| --- | --- |
| O=C1NCC(CCc2ccccc2)C1C(=O)Nc1cccc(F)c1F (stereo not drawn) [Compound 35, N-(2,3-difluorophenyl)-2-oxo-4-(2-phenylethyl)-3-pyrrolidinecarboxamide] | 0 |

tested on: blackgrass (Alopecurus myosuroides); test: Test A postemergence, blackgrass; type: in vivo; conditions: 125 g ai/ha, 0 to 100 scale
In short: as §1

| SMILES | Plant response rating, Blackgrass |
| --- | --- |
| O=C1NCC(CCc2ccccc2)C1C(=O)Nc1cccc(F)c1F (stereo not drawn) [Compound 35, N-(2,3-difluorophenyl)-2-oxo-4-(2-phenylethyl)-3-pyrrolidinecarboxamide] | 0 |

same assay, conditions: 500 g ai/ha, 0 to 100 scale

| SMILES | Plant response rating, Blackgrass |
| --- | --- |
| O=C1NCC(CCc2ccccc2)C1C(=O)Nc1cccc(F)c1F (stereo not drawn) [Compound 35, N-(2,3-difluorophenyl)-2-oxo-4-(2-phenylethyl)-3-pyrrolidinecarboxamide] | 0 |

tested on: corn (Zea mays); test: Test A postemergence, corn; type: in vivo; conditions: 125 g ai/ha, 0 to 100 scale
In short: as §1

| SMILES | Plant response rating, Corn |
| --- | --- |
| O=C1NCC(CCc2ccccc2)C1C(=O)Nc1cccc(F)c1F (stereo not drawn) [Compound 35, N-(2,3-difluorophenyl)-2-oxo-4-(2-phenylethyl)-3-pyrrolidinecarboxamide] | 0 |

same assay, conditions: 500 g ai/ha, 0 to 100 scale

| SMILES | Plant response rating, Corn |
| --- | --- |
| O=C1NCC(CCc2ccccc2)C1C(=O)Nc1cccc(F)c1F (stereo not drawn) [Compound 35, N-(2,3-difluorophenyl)-2-oxo-4-(2-phenylethyl)-3-pyrrolidinecarboxamide] | 0 |

tested on: rice (Oryza sativa); test: Test B flooded paddy test, rice; type: in vivo; conditions: Flood, 250 g ai/ha; scale of 0 to 100 where 0 is no effect and 100 is complete control; 13 to 15 d
In short: as §2

| SMILES | Plant response rating, Rice |
| --- | --- |
| O=C1NCC(CCc2ccccc2)C1C(=O)Nc1cccc(F)c1F (stereo not drawn) [Compound 35, N-(2,3-difluorophenyl)-2-oxo-4-(2-phenylethyl)-3-pyrrolidinecarboxamide] | 0 |

tested on: barnyardgrass (Echinochloa crus-galli); test: Test A preemergence, barnyardgrass; type: in vivo; conditions: 125 g ai/ha, 0 to 100 scale
In short: as §1

| SMILES | Plant response rating, Barnyardgrass |
| --- | --- |
| O=C1NCC(CCc2ccccc2)C1C(=O)Nc1cccc(F)c1F (stereo not drawn) [Compound 35, N-(2,3-difluorophenyl)-2-oxo-4-(2-phenylethyl)-3-pyrrolidinecarboxamide] | 0 |

same assay, conditions: 500 g ai/ha, 0 to 100 scale

| SMILES | Plant response rating, Barnyardgrass |
| --- | --- |
| O=C1NCC(CCc2ccccc2)C1C(=O)Nc1cccc(F)c1F (stereo not drawn) [Compound 35, N-(2,3-difluorophenyl)-2-oxo-4-(2-phenylethyl)-3-pyrrolidinecarboxamide] | 30 |

tested on: ryegrass, It. (Italian ryegrass, Lolium multiflorum); test: Test A preemergence, ryegrass, It.; type: in vivo; conditions: 125 g ai/ha, 0 to 100 scale
In short: as §1

| SMILES | Plant response rating, Ryegrass, It. |
| --- | --- |
| O=C1NCC(CCc2ccccc2)C1C(=O)Nc1cccc(F)c1F (stereo not drawn) [Compound 35, N-(2,3-difluorophenyl)-2-oxo-4-(2-phenylethyl)-3-pyrrolidinecarboxamide] | 0 |

same assay, conditions: 500 g ai/ha, 0 to 100 scale

| SMILES | Plant response rating, Ryegrass, It. |
| --- | --- |
| O=C1NCC(CCc2ccccc2)C1C(=O)Nc1cccc(F)c1F (stereo not drawn) [Compound 35, N-(2,3-difluorophenyl)-2-oxo-4-(2-phenylethyl)-3-pyrrolidinecarboxamide] | 0 |
